Results as given in US7687540B2, “Substituted propane phosphinic acid esters” (Aventis Pharmaceuticals Inc., priority 2005, dated 2010).

Legend:
Male Wistar rats = assay: Chronic Mild Stress Model (CMS), sucrose consumption; type: in vivo; settings: 3 and 30 mg/kg orally, daily for five weeks; imipramine 10 mg/kg ip
From the text: CMS uses mild stressors, such as food and water deprivation, cage tilts, changes of cage mates, etc. Over a period of weeks of exposure to the mild stressors, the animals gradually reduce their consumption of a highly preferred sucrose solution which persists (in untreated animals) for several weeks following the cessation of stress. This decreased sensitivity to reward (the sucrose solution) reflects anhedonia, a symptom of a major depressive episode (see for example, Behavioral Pharmacol. 5: Suppl. 1, p. 86 (1994) where lithium, carbamazepine and ketoconazole were evaluated in CMS; Psychopharmacology 93:358-364 (1987) where a tricyclic antidepressant was evaluated in CMS; Behavioral Pharmacology: 5:344-350 (1994) where a catechol-O-methyl transferase inhibitor was evaluated in CMS). […]
The animals are first trained to consume a 1% sucrose solution; training consists of eight 1 hour baseline tests in which sucrose is presented, in the home cage, following 14 hours food and water deprivation; intake is measured by weighing pre-weighed bottles containing the sucrose solution at the end of the test. Subsequently, sucrose consumption is monitored, under similar conditions, at weekly intervals throughout the whole experiment. […]
Results are analyzed by multiple analysis of variance, followed by Fisher's LSD test for post hoc comparisons of means.

[1] = Brain levels after oral dosing in mice by LC/MS/MS; type: in vivo, Male CD1 mice; settings: brains collected at 2, 4 and 7 hrs post-dose after oral dosing of test compounds
Method: Animals: Male CD1 mice (Charles River) weighing about 25 g—with free access to food and water.
Dose Groups The compounds of this invention were administered to the test animals at a dose, which is molar equivalent to 10 mg/kg of the parent compound, ((R)-3-amino-2-hydroxy-propyl)-cyclohexylmethyl-phosphinic acid. Each of the test compounds was formulated at this dose level to yield a dose volume of 10 mL/kg and administered by oral gavage to a group of three mice per time point in each study group. Formulations: The compounds of this invention were dissolved in vehicle of 0.2% Tween 80 and 0.5% methylcellulose (MC) at a concentration of about 1 mg/mL. Samples: The blood samples (for plasma) were collected at the following time points: 5, 15 30 and 45 min […]; and 1, 2, 3, 4, 5, and 7 hrs post-dose. Brains were collected at 2, 4 and 7 hrs post-dose Blood Handling The blood samples were added to tubes containing 20 μL of a stock 10 mg/ml solution of sodium fluoride. The blood tubes were then stored in a refrigerator at approximately about 4° C. […] Bioanalysis: All plasma and brain samples were then analyzed for concentrations of the test compound as well as the parent compound, ((R)-3-amino-2-hydroxy-propyl)-cyclohexylmethyl-phosphinic acid by LC/MS/MS. […]
Whereas, in most cases, the levels of the test compound was too small to be detected for all of the test compounds analyzed.

In the case of NC[C@@H](O)CP(=O)(O)CC1CCCCC1 [parent compound, ((R)-3-amino-2-hydroxy-propyl)-cyclohexylmethyl-phosphinic acid], the “activity in CMS (sucrose intake) compared with imipramine” value (Male Wistar rats) is reported as “equal to that of imipramine” and the “concentration of the parent compound in brain” value [1] is reported as “proportional to the concentration of the parent compound in plasma”.
